From article PMC9194530, “Interaction of Colchicine-Site Ligands With the Blood Cell-Specific Isotype of β-Tubulin—Notable Affinity for Benzimidazoles” (Frontiers in Cell and Developmental Biology, 2022)
Read-outs that look alike come from different tables or passages of the source.

Legend:
BTb, colchicine site = molecular target: T1, BTb, colchicine site (Bos taurus, UniProt Q6B856); experiment: Single-point MDL competitive binding inhibition screen, brain tubulin; set-up: species or system bovine or rat; conditions: for inhibition at 50 µM: read-out: BTb % (inhibition of MDL binding)
T1 construct: from tissue; host or cells: mammalian brain: either rat brain (purified in house) or bovine brain (bought from Cytoskeleton #HTS02-A or Sigma-Aldrich #T4925)

Brain tubulin (BTb) = molecular target: T2, Brain tubulin (BTb) (Bos taurus, UniProt Q6B856); experiment: Inhibition of taxol-induced tubulin polymerization (absorbance at 350 nm), brain tubulin; type: biochemical, bovine or rat; conditions: tubulin 2 µM, taxol 2 µM, drugs 20 µM; polymerization with taxol alone = 100%
T2 construct: from tissue; host or cells: mammalian brain: either rat brain (purified in house) or bovine brain (bought from Cytoskeleton #HTS02-A or Sigma-Aldrich #T4925)
Procedure: (§1) Tubulin was polymerized at a concentration of 2 µM in PM buffer (0.1 M Pipes pH 7, 1 mM MgCl2) + 0.1 mM GTP in a volume of 60 µL. The reaction mixture was transferred to a 10-mm pathlength microcuvette (Hellma United States Inc., Plainview, NY) and placed in the cuvette holder of a SpectraMax M2 Multimode Microplate Reader (Molecular Devices, San Jose, CA) equipped with temperature control set at 37°C for these experiments. Drugs at 20 µM were added directly to the polymerization mixture and incubated for 15 min previous to starting the recordings. Tubulin polymerization kinetics was followed by recording the absorbance at 350 nm. After recording the baseline, tubulin polymerization was induced by the addition of 2 µM paclitaxel (taxol). The final concentration of DMSO in the mixtures was 4%–5% v/v.
(§2) FIGURE 2 Inhibition of tubulin polymerization by colchicine-site drugs. Tubulin from brain (A) or from erythrocytes (B) was incubated at 2 µM in polymerization buffer at 37°C, and the absorbance at 350 nm was registered for 10 min prior to starting the polymerization by the addition of taxol 2 µM (arrow). Drugs were included in polymerization buffer and used at a concentration of 20 µM.

CeTb, colchicine site = CeTb, colchicine site (Gallus gallus, UniProt P09207); experiment: Single-point MDL competitive binding inhibition screen, erythrocyte tubulin; set-up: species or system chicken (Gallus gallus); conditions: for Kd: from single-point data (50 µM drug) fitted with single-site isotherm, Eq. 4, read-out: CeTb Kd(app)
[1] = molecular target: Erythrocyte tubulin (CeTb) (Gallus gallus, UniProt P09207); experiment: Inhibition of taxol-induced tubulin polymerization (absorbance at 350 nm), erythrocyte tubulin; type: biochemical, chicken (Gallus gallus)
Procedure: as §1, §2

BTb = molecular target: BTb; set-up: method as in Head et al., 1985; conditions: read-out: Kd nocodazole, published value; ref Head et al., 1985; cited from earlier work
[2] = molecular target: Chicken erythrocyte tubulin (CeTb) (Gallus gallus, UniProt P09207); experiment: MDL fluorescence dilution titration, chicken erythrocyte tubulin; type: binding
[3] = molecular target: Chicken brain tubulin (CBTb); experiment: MDL fluorescence dilution titration, chicken brain tubulin; type: binding; conditions: 1 µM tubulin, PM buffer, 5% DMSO, 25°C; ± standard error of fit
Rat brain tubulin (RBTb) = molecular target: T3, Rat brain tubulin (RBTb) (Rattus norvegicus, UniProt Q3KRE8); experiment: MDL fluorescence dilution titration, rat brain tubulin; type: binding; conditions: 1 µM tubulin, PM buffer, 5% DMSO, 25°C; ± standard error of fit
T3 construct: Rat brain tubulin was purified from microtubule protein previously extracted from frozen rat brains; from tissue; host or cells: frozen rat brains; tubulin purified in house from microtubule protein

[4] = molecular target: T4, Bovine brain tubulin (BBTb) (Bos taurus, UniProt Q6B856); experiment: MDL fluorescence dilution titration, bovine brain tubulin; type: binding; conditions: 1 µM tubulin, PM buffer, 5% DMSO, 25°C; ± standard error of fit
T4 construct: purchased Cytoskeleton, Inc. or Sigma-Aldrich #HTS02-A or #T4925; host or cells: bovine brain

[5] = molecular target: T5, Brain tubulin (BTb), colchicine site (Bos taurus, UniProt Q6B856); experiment: Competition titration with MDL (fluorescence), brain tubulin; type: binding, bovine or rat
T5 construct: from tissue; host or cells: mammalian brain: either rat brain (purified in house) or bovine brain (bought from Cytoskeleton #HTS02-A or Sigma-Aldrich #T4925)

[6] = molecular target: Erythrocyte tubulin (CeTb), colchicine site (Gallus gallus, UniProt P09207); experiment: biochemical; type: binding, chicken (Gallus gallus)
rat brain tubulin = molecular target: rat brain tubulin; set-up: method as in Cortese et al., 1977; conditions: tritiated podophyllotoxin, ref Cortese et al., 1977, read-out: Kd podophyllotoxin, literature value; cited from earlier work
[7] = molecular target: T6, bovine brain microtubule protein (tubulin plus microtubule-associated proteins) (Bos taurus, UniProt Q6B856); experiment: GTP-induced polymerization of bovine brain microtubule protein (turbidity at 350 nm); type: biochemical; conditions: albendazole 12-60 µM, 15 µM microtubule protein, 1 mM GTP, 37 °C, 2% DMSO
T6 construct: from tissue; host or cells: bovine brain; microtubule protein purified by the method of Williams and Lee, 1982
Procedure: albendazole (ABZ). 15 µM bovine brain microtubule protein (tubulin plus microtubule-associated proteins, purified according to (Williams and Lee, 1982), in PME buffer was incubated with varying concentrations of albendazole for 40 min at room temperature.
The samples were equilibrated to 37 °C in the cell holder of a UV-Vis spectrophotometer (HP8453, Hewlett Packard, Palo Alto, CA). A baseline was recorded before adding GTP to a concentration of 1 mM to induce microtubule assembly. All samples had 2% (v/v) DMSO. The extent of polymerization was determined by the increase of turbidity as measured by the apparent absorbance at 350 nm.

BBTb = molecular target: BBTb; set-up: method as in Lin et al., 1989; conditions: read-out: Kd combretastatin A4, literature value; ref Lin et al., 1989; cited from earlier work
[8] = tubulin 2 µM, taxol 2 µM, drugs 20 µM, polymerization with taxol alone = 100%
[9] = 50 µM drug, 1 µM tubulin, 5 µM MDL, single point
[10] = competition titration, 1 µM tubulin, 5 µM MDL
[11] = competition titration, 1 µM tubulin, 5 µM MDL, calculated with Equation 4, read-out: Erythrocyte tubulin (CeTb) Kd
[12] = summary of competition titrations with MDL, read-out: Erythrocyte tubulin (CeTb) Kd (Table 4, selected drugs)

In the case of `COC(=O)Nc1nc2ccc(C(=O)c3cccs3)cc2[nH]1` [Nocodazole], the inhibition at 50 µM (BTb, colchicine site) is reported as 85%, the “Brain tubulin (BTb) % inhibition at 60 min” value (Brain tubulin (BTb)) is reported as 55% and the “CeTb % (inhibition of MDL binding)” value (CeTb, colchicine site) is reported as 96%. For the same molecule, the “Erythrocyte tubulin (CeTb) % inhibition at 30 min” value [1] was 90% and the Kd (BTb) was 2500 nM.

With `COc1ccc(OC)c(C(=O)/C(C)=C/c2ccc(N(C)C)cc2)c1` [MDL, (E)-1-(2,5-dimethoxyphenyl)-3-[4-(dimethylamino)phenyl]-2-methylprop-2-en-1-one] the “Brain tubulin (BTb) % inhibition at 60 min” value (Brain tubulin (BTb)) was 64%, the Kd ([2]; 1 µM tubulin, PM buffer, 5% DMSO, 25°C, ± standard error of fit, read-out: Kd,MDL, chicken erythrocytes (CeTb)) was 2600 ± 240 nM and the “MDL affinity for CeTb, fold weaker than to brain tubulins” value ([2]; direct MDL titration) was about 5 fold. For the same molecule, the “Ratio: Kd of MDL and CeTb divided by Kd of MDL and BBTb” value ([2]; direct MDL titration) was 5, the Kd [3] was 510 ± 79 nM and the Kd (Rat brain tubulin (RBTb)) was 450 ± 46 nM. For the same molecule, the Kd [4] was 540 ± 82 nM and the “Erythrocyte tubulin (CeTb) % inhibition at 30 min” value [1, 8] was 38%.

`COC(=O)Nc1nc2ccc(C(=O)c3ccccc3)cc2[nH]1` [Mebendazole] showed an inhibition at 50 µM (BTb, colchicine site; [9]) of 82%, a Kd (BTb, colchicine site; from single-point data (50 µM drug) fitted with single-site isotherm, Eq. 4, read-out: BTb Kd(app)) of 1000 nM and a Kd ([5]; competition titration, 1 µM tubulin, 5 µM MDL, calculated with Equation 4, nb = no binding detected, read-out: Brain tubulin (BTb) Kd) of 1300 ± 230 nM. For the same molecule, the IC50 ([5]; competition titration, 1 µM tubulin, 5 µM MDL, nb = no binding detected, read-out: Brain tubulin (BTb) IC50) was 14 ± 2.5 µM, the “Brain tubulin (BTb) % inhibition at 60 min” value (Brain tubulin (BTb)) was 92% and the “CeTb % (inhibition of MDL binding)” value (CeTb, colchicine site; [9]) was 90%. It also gave a Kd (CeTb, colchicine site) of 1.8 µM, an IC50 [6, 10] of 6.8 ± 0.73 µM and a Kd [6, 11] of 2.3 ± 0.25 µM. For the same molecule, the “Ratio: Kd of the drug and CeTb divided by the Kd of the drug and BBTb” value ([6]; ratio >1 = weaker binding to CeTb) was 1.9, the Kd [6, 12] was 2.6 µM and the “Erythrocyte tubulin (CeTb) % inhibition at 30 min” value [1, 8] was 25%.

`COc1cc([C@@H]2c3cc4c(cc3[C@H](O)[C@H]3COC(=O)[C@H]23)OCO4)cc(OC)c1OC` [Podophyllotoxin] showed a Kd (BTb, colchicine site) of 730 nM, an inhibition at 50 µM (BTb, colchicine site) of 90% and an IC50 [5] of 4 ± 1 µM. For the same molecule, the Kd ([5]; Brain tubulin (BTb) Kd) was 370 ± 35 nM, the Kd ([5]; Brain tubulin (BTb) Kd (Table 4, selected drugs)) was 370 nM and the “Brain tubulin (BTb) % inhibition at 60 min” value (Brain tubulin (BTb)) was 90%. The Kd (rat brain tubulin) was 550 nM, the inhibition at 50 µM (CeTb, colchicine site; 50 µM drug, 1 µM tubulin, 5 µM MDL, single point, read-out: CeTb % (inhibition of MDL binding)) was 81% and the “Ratio: Kd of the drug and CeTb divided by the Kd of the drug and BBTb” value [6] was 13. For the same molecule, the IC50 [6, 10] was 15 ± 0.53 µM, the Kd [6, 11] was 4.9 ± 0.18 µM and the Kd [6, 12] was 4.9 µM. The “Erythrocyte tubulin (CeTb) % inhibition at 30 min” value [1, 8] was 95%.

For `CCCSc1ccc2nc(NC(=O)OC)[nH]c2c1` [Albendazole], the “BTb % (inhibition of MDL binding)” value (BTb, colchicine site) was under 1%, the “Brain tubulin (BTb) Kd” value ([5]; competition titration, 1 µM tubulin, 5 µM MDL, calculated with Equation 4, nb = no binding detected) was “nb” and the “Brain tubulin (BTb) Kd” value ([5]; competition titration, 1 µM tubulin, 5 µM MDL, calculated with Equation 4, nb = no binding detected, listed as albendazole) was “no detectable binding”. For the same molecule, the “Brain tubulin (BTb) IC50” value ([5]; competition titration, 1 µM tubulin, 5 µM MDL, nb = no binding detected) was “nb”, the “CeTb % (inhibition of MDL binding)” value (CeTb, colchicine site; [9]) was 35% and the Kd (CeTb, colchicine site) was 31 µM. For the same molecule, the IC50 [6, 10] was 104 ± 12 µM, the Kd [6, 11] was 35 ± 4 µM and the Kd [6, 12] was 35 µM. The “inhibition of polymerization of BTb” value [7] was “little or no inhibition” and the “inhibition of polymerization of BTb” value ([7]; listed as albendazole (ABZ)) was “not significantly inhibited”.

For `COc1ccc(/C=C\c2cc(OC)c(OC)c(OC)c2)cc1O` [Combretastatin A4, cis-Combretastatin A4], the inhibition at 50 µM (BTb, colchicine site) is given as 92%, the “CeTb % (inhibition of MDL binding)” value (CeTb, colchicine site) is given as 64% and the Kd (BBTb) is given as 120 nM.
